In patent publication US20220226270A1, “VERY-LONG-CHAIN POLYUNSATURATED FATTY ACIDS, ELOVANOID HYDROXYLATED DERIVATIVES, AND METHODS OF USE” (Board of Supervisors of Louisiana State University and …, priority 2019, published 2022):

Tests used:
[1] = tested on: cerebral cortical mixed neuronal cells; assay: NMDA excitotoxicity in cerebral cortical mixed neuronal cultures; format: cell-based, rat; conditions: for frequency distribution of pyknotic vs non-pyknotic nuclei (nuclear size peak) after NMDA: 500 nM, NMDA 100 μM 12 h, DIV 12, Hoechst; for synergy with NPD1 in neuroprotection against NMDA excitotoxicity: ELV 200 nM + NPD1 100 nM, NMDA 100 μM, 12 h (FIG. 16A); for NMDA dose-dependent increase of apoptotic nuclei: NMDA 25, 50 or 100 μM; for neuroprotection on addition of MK801 and NPD1 together, versus ELV alone: NMDA excitotoxicity
Excerpt: (§1) Primary cultures of cortical neurons: Primary cultures of cortical and hippocampal neurons were harvested from 18-day-old embryos (E18) taken from timed-pregnant, two-month-old Sprague-Dawley (SD) rats (Charles River Lab., Wilmington, Mass.). Briefly, timed-pregnant SD rats were euthanized and embryos were collected in sterile conditions. Embryonic brains were dissected out by forceps on ice and placed in a petri dish containing ice-cold Hank's Balanced Salt Solution (HBSS) (GIBCO). Meninges were removed under a dissecting microscope and cortical tissues were chopped into small pieces with micro-spring scissors. These tissues were transferred to 15 ml tubes containing trypsin-EDTA (0.025% in HBSS) and DNase I. The tubes were incubated in 37° C. chamber for 15 mins and were agitated every 5 mins. After stopping the trypsinization with 5 ml 10% FBS, these tissues were triturated 15 times with a fire polished Pasteur pipet. Cell clumps were left to settle for 2 mins and the supernatant was transferred to a 15 ml Eppendorf tube. The supernatant was filtered through a 70 μm pore-sized filter (Corning cell strainer) and centrifuged for 5 mins at 1000 rpm. The cells were then resuspended in Neurobasal medium (GIBCO) containing 2% B27 (GIBCO) and 2% N2 (GIBCO) supplements, along with 0.5 mM glutamine, 50 U/ml penicillin/streptomycin.
(§2) Cells were counted using a Neubauer hemocytometer. 1×10^6 cells were seeded on poly-D-lysine-coated 12 well cell culture dish (CORNING) and cultured in incubator (37° C., 5% CO2). Culture medium was first replaced after 24 h, then half of the medium was replaced with fresh medium every three days. As a result, approximately, 90% purity of neurons was obtained as determined by class-III-β tubulin, GFAP and Hoechst 33258 staining. Cells were maintained in culture for about 2 weeks until they were exposed to uncompensated oxidative stress, OGD, or NMDA excitotoxicity.
(§3) After 90 mins of OGD exposure, cells were returned to the original medium (Neurobasal medium (GIBCO) containing 2% B27 (GIBCO) and 2% N2 (GIBCO) supplements, along with 0.5 mM glutamine, 50 U/ml penicillin/streptomycin) and placed in a normoxic chamber (37° C., 5% CO2) for 2 h. Then the medium was changed with medium containing either ELV-N32 or ELV-N34 [500 nM] and maintained in a normoxic chamber (37° C., 5% CO2) for 12 h, after which cells were sampled and assayed for cell viability using different methods as previously described (25-28). Cerebral cortical mixed neuronal cells or hippocampal cells in culture were exposed to either NMDA or uncompensated oxidative stress (UOS) for 12 h by addition of either NMDA (25 μM, 50 μM, or 100 μM) concentration or by the addition of TNFα (10 ng/mL) and H2O2 (50 μM, 100 μM, or 200 μM). Cell viability and neuroprotection in the presence of ELV-N32, ELV-N34, 32:6, or 34:6 were assayed after 12 h.
(§4) Hoechst staining and unbiased image analysis: Cells were washed with 1× Dulbecco's Phosphate Buffered Saline (DPBS) containing no calcium or magnesium (GIBCO) and fixed for 10 mins using ice-cold 4% paraformaldehyde (PFA) followed by 15 mins incubation in 100% methanol. Cells were washed with 1× Phosphate Buffered Saline (PBS) pH 7.4 (GIBCO) and incubated in PBS containing 20 μM Hoechst 33258 (Molecular Probes) for 20 mins. Cells were then washed 3 times with 1× PBS and stored in 1× PBS at 4° C. until they were imaged for microscopy.
(§5) One 4×4 tile mosaic was acquired from the center of each well using a Zeiss 510 Meta laser confocal microscope and LSM 510 Meta software. Images were imported into image analysis software ImageJ (National Institutes of Health, Bethesda, Md.) and batch processed using custom macros. An Otsu auto threshold was applied to each image of Hoechst-stained nuclei, and the area of each detected object was recorded. Objects with areas <10 μm^2 were excluded from analysis. To estimate percentage non-pyknotic nuclei, a size cutoff value was chosen above which objects were assumed to be non-pyknotic. […]

[2] = tested on: hippocampal mixed neuronal culture; assay: Oxygen glucose deprivation (OGD) in hippocampal mixed neuronal culture; format: cell-based, rat; conditions: 500 nM, DIV 12, 90 min OGD (FIG. 18G)
Excerpt: as §1
Oxygen glucose deprivation (OGD), NMDA excitotoxicity or uncompensated oxidative stress (UOS) exposure: An in vitro oxygen glucose deprivation (OGD) model was established. Primary cortical neurons were cultured from SD rat embryos. On day in vitro (DIV) 12, cells were washed with phosphate-buffered saline and incubated in glucose-free Neurobasal medium (GIBCO) for 30 mins. The cells were then placed in a modular incubator chamber and incubated in an anaerobic chamber (95% N2, 5% CO2) at 37° C. for 90 mins for OGD.
After 90 mins of OGD exposure, cells were returned to the original medium (Neurobasal medium (GIBCO) containing 2% B27 (GIBCO) and 2% N2 (GIBCO) supplements, along with 0.5 mM glutamine, 50 U/ml penicillin/streptomycin) and placed in a normoxic chamber (37° C., 5% CO2) for 2 h. Then the medium was changed with medium containing either ELV-N32 or ELV-N34 [500 nM] and maintained in a normoxic chamber (37° C., 5% CO2) for 12 h, after which cells were sampled and assayed for cell viability using different methods as previously described (25-28). […]
One 4×4 tile mosaic was acquired from the center of each well using a Zeiss 510 Meta laser confocal microscope and LSM 510 Meta software. […] An Otsu auto threshold was applied to each image of Hoechst-stained nuclei, and the area of each detected object was recorded. […]

ARPE-19 cells under UOS = assay: Western blot of pro-survival and pro-apoptotic proteins in ARPE-19 cells under UOS; format: cell-based, human; conditions: for Iduna expression (ELV): 200 nM; for Bcl-2 protein / Bcl-xL protein / Bax protein / Bid protein / Bim protein: Western blot, UOS; for Sirtuin1 (SIRT1) expression (ELV): dose-dependent, 100-200 nM; for Iduna expression (VLC-PUFA): RPE cells under UOS (FIG. 7D); for SIRT1 expression (VLC-PUFA): RPE under UOS (FIG. 7C); for Prohibitin (type-1) expression (VLC-PUFA): concentration-dependent, 100 and 250 nM (FIG. 7J)
Description: ARPE19 cells at 75-80% confluence (72 h growth in DMEM/F12+10% FBS) in 6-well plates were serum-starved for 8 h before exposure. The serum-starved cells were treated with TNF-α (Sigma-Aldrich, St. Louis, Mo.) (10 ng/ml) and H2O2 (600 μM) to induce oxidative stress and challenged with increasing concentrations (50-500 nM) of VLC-PUFA (C32:6n3 and C34:6n3) simultaneously with oxidative stress for 16 h (apoptosis) and 6 h (Western-blot) before detection of apoptosis and harvesting for protein analysis. In some experiments, DHA at a concentration of 100 nM and 15-LOX-1 inhibitor PD146176 at a concentration of 1 μM was added to treat the RPE cells under stress. Cell extracts were made and protein concentrations adjusted by Bio-Rad (Hercules, Calif.) protein reagent and used for Western blot analysis.
Analysis of Proteins: Bcl-2 family proteins, SIRT1 and Proinhibitin (type-1), and Iduna proteins were analyze by Western blot analysis. In brief, 20-25 μg equivalents of each cell extracts were subject to electrophoresis on a 4-12% gel (Promega) at 125 V for 2 h. The proteins were transferred to nitrocellulose membrane by I-blot transfer apparatus. The membranes were subjected to treatment with primary antibodies specific for Bcl-2, Bcl-xL, Bax, Bid, Bim, SIRT1 and Prohibitin (type-1) (Santa Cruz Biotechnology) and Iduna antibody (Neuro-Mab Lab, UCLA, Los Angeles, Calif.) overnight at 4° C. and probed for 45 mins with secondary antibody, goat anti-mouse Ig:horseradish peroxidase, and horseradish peroxidase-conjugated anti-biotin antibody, and then proteins were evaluated by using an ECL kit (Amersham).

[3] = tested on: cerebral cortical mixed neuronal cells; assay: Uncompensated oxidative stress (TNFα plus H2O2) in cerebral cortical mixed neuronal cultures; format: cell-based, rat; conditions: for UOS dose-dependent increase of apoptotic nuclei: 200 nM (FIG. 16B); for neuroprotection against uncompensated oxidative stress: 200 nM, 12 h TNFα 10 ng/mL and H2O2 (50, 100 or 200 μM)
Excerpt: as §1, §2, §3, §4, §5

Row | SMILES | frequency distribution of pyknotic vs non-pyknotic nuclei (nuclear size peak) after NMDA [1] | neuroprotection after OGD (Hoechst positive nuclei counting) [2] | Iduna expression (ELV) (ARPE-19 cells under UOS) | Bcl-2 protein (ARPE-19 cells under UOS) | Bcl-xL protein (ARPE-19 cells under UOS) | Sirtuin1 (SIRT1) expression (ELV) (ARPE-19 cells under UOS) | synergy with NPD1 in neuroprotection against NMDA excitotoxicity [1] | NMDA dose-dependent increase of apoptotic nuclei [1] | neuroprotection on addition of MK801 and NPD1 together, versus ELV alone [1] | UOS dose-dependent increase of apoptotic nuclei [3] | neuroprotection against uncompensated oxidative stress [3] | Iduna expression (VLC-PUFA) (ARPE-19 cells under UOS) | SIRT1 expression (VLC-PUFA) (ARPE-19 cells under UOS) | Bax protein (ARPE-19 cells under UOS) | Bid protein (ARPE-19 cells under UOS) | Bim protein (ARPE-19 cells under UOS) | Prohibitin (type-1) expression (VLC-PUFA) (ARPE-19 cells under UOS) | also measured
1 | CC/C=C\C[C@H](O)\C=C/C=C/C=C/[C@H](O)C/C=C\C/C=C\CCCCCCCCCCCCCCC(=O)OC [ELV-N34-Me, methyl (16Z,19Z,22R,23E,25E,27Z,29S,31Z)-22,29-dihydroxytetratriaconta-16,19,23,25,27,31-hexaenoate] | positive rightward shift |  |  |  |  |  |  |  |  |  |  |  |  |  |  |  |  | 
2 | CC/C=C\C[C@H](O)\C=C/C=C/C=C/[C@H](O)C/C=C\C/C=C\CCCCCCCCCCCCC(=O)[O-].[Na+] [ELV-N32-Na, sodium (14Z,17Z,20R,21E,23E,25Z,27S,29Z)-20,27-dihydroxydotriaconta-14,17,21,23,25,29-hexaenoate] | positive rightward shift | neuroprotection elicited | enhanced | enhanced the abundance | enhanced the abundance | upregulate | showed synergy | compensated for | improved the neuroprotection | counteracted | evoked neuroprotection |  |  |  |  |  |  | relative potency in upregulating SIRT1 (ARPE-19 cells under UOS; UOS RPE cells): more potent than ELV-N34-Na; neuroprotection against uncompensated oxidative stress ([3]; listed as ELV-N32 Na): neuroprotection elicited
3 | CC/C=C\C[C@H](O)\C=C/C=C/C=C/[C@H](O)C/C=C\C/C=C\CCCCCCCCCCCCCCC(=O)[O-].[Na+] [ELV-N34-Na, sodium (16Z,19Z,22R,23E,25E,27Z,29S,31Z)-22,29-dihydroxytetratriaconta-16,19,23,25,27,31-hexaenoate] |  | neuroprotection elicited | enhanced | enhanced the abundance | enhanced the abundance | upregulate |  |  |  |  | neuroprotection elicited |  |  |  |  |  |  | 
4 | CC/C=C\C/C=C\C/C=C\C/C=C\C/C=C\C/C=C\CCCCCCCCCCCCC(=O)O [32:6n3, (14Z,17Z,20Z,23Z,26Z,29Z)-dotriaconta-14,17,20,23,26,29-hexaenoic acid] |  | showed neuroprotection |  | upregulate | upregulate |  |  |  |  |  |  | upregulation | upregulation | down regulated | down regulated | down regulated | upregulation | NMDA excitotoxicity (precursor, 250 nM) ([1]; 250 nM (FIG. 17 graph D)): attenuate NMDA excitotoxicity
5 | CC/C=C\C/C=C\C/C=C\C/C=C\C/C=C\C/C=C\CCCCCCCCCCCCCCC(=O)O [34:6n3, (16Z,19Z,22Z,25Z,28Z,31Z)-tetratriaconta-16,19,22,25,28,31-hexaenoic acid] |  | showed neuroprotection |  | upregulate | upregulate |  |  |  |  |  |  | upregulation | upregulation | down regulated | down regulated | down regulated | upregulation | NMDA receptor-mediated excitotoxicity (precursor, 500 nM) ([1]; 500 nM (FIG. 16H)): attenuates
6 | CC/C=C\C[C@H](O)\C=C/C=C/C=C/[C@H](O)C/C=C\C/C=C\CCCCCCCCCCCCC(=O)OC [ELV-N32-Me, methyl (14Z,17Z,20R,21E,23E,25Z,27S,29Z)-20,27-dihydroxydotriaconta-14,17,21,23,25,29-hexaenoate] |  |  |  |  |  |  | showed synergy | compensated for | improved the neuroprotection | counteracted | evoked neuroprotection |  |  |  |  |  |  | relative potency of combination with NPD1 ([1]; versus ELV-N32-Na and NPD1 together): more potent
